Experimental data taken from patent EP2650000A1, “Utilization of copper complexes involving 2-phenyl-3-hydroxy-4(1H)-quinolinone and 1,10-phenanthroline derivatives for the preparation of drugs for the treatment of tumour diseases” (Univerzita Palackeho, priority 2012, dated 2013).

Key:
Format in all cases: cell-based
[1] = tested on: human prostate carcinoma cell line (LNCaP); assay: MTT assay, in vitro anticancer activity, LNCaP; settings: LNCaP cells, 24 hours incubation, read-out: inhibition concentrations IC50
Experimental: (§1) The in vitro anticancer activity of the prepared complexes listed as the examples below was determined by the MTT assay. The method is based on the ability of metabolic-active cells to reduce (by mitochondrial dehydrogenases) the yellow tetrazolium dye (3-(4,5-dimethylthiazol-2-yl)-2,5-diphenyltetrazolium bromide (MTT)) to the blue formazane end-product. Because the reduction proceeds only in the living cells, the cytotoxicity of various compounds can be determined using this process. The water-insoluble formazane is quantified after dissolving in dimethyl sulfoxide (DMSO) with the solution of ammonia on a spectrophotometer (ELISA reader). The in vitro anticancer activity testing was performed on the following human cancer cell lines: lung adenocarcinoma (A549), cervix epitheloid carcinoma (HeLa), malignant melanoma (G361), ovarian carcinoma (A2780), cisplatin-resistant ovarian carcinoma (A2780R) and prostate carcinoma (LNCaP). The cell lines were maintained in plastic vessels in the DMEM medium (5 g/l glucose, 2 mM glutamine, 100 U/mL penicillin, 100 µg/mL streptomycin, 10% foetal calf serum and sodium bicarbonate) for cell cultures. The 80 µL of cell suspensions (ca. 1.25 × 10^5 cells per mL) were pipetted onto 96-well plastic microtitration plates. These were further pre-incubated at 37 °C in the CO2 atmosphere for 24 hours. The tested copper complexes and cisplatin, used as positive and therapeutic standard, were dissolved in N,N'-dimetylformamide in the concentrations up to 50 mM which served as stock solutions. For the experiment, the stock solutions were diluted 1000 x in the incubation medium (maximum concentration of 50.0 µM). After removal of the cultivation media, the mixtures of appropriate concentration were added to the cancer cells for the incubation period of 24 hours. The MTT analysis was performed spectrophotometrically (TECAN, Schoeller Instruments LLC) at 540 nm.
(§2) The concentrations of the tested complexes (µM) toxic for 50% of cancer cells (inhibition concentration IC50) were calculated from the dose-response curves.
The determination of in vitro anticancer activity of the studied compounds 1-6 and cisplatin against human prostate carcinoma cell line (LNCaP) was performed by the MTT assay.

[2] = tested on: human ovarian carcinoma cell line (A2780); assay: MTT assay, in vitro anticancer activity, A2780; settings: A2780 cells, 24 hours incubation, read-out: inhibition concentrations IC50
Experimental: as §1, §2
The determination of in vitro anticancer activity of the studied compounds 1-6 and cisplatin against human ovarian carcinoma cell line (A2780) was performed by the MTT assay.

[3] = tested on: human malignant melanoma cancer cell line (G361); assay: MTT assay, in vitro anticancer activity, G361; settings: G361 cells, 24 hours incubation, read-out: inhibition concentrations IC50
Experimental: as §1, with “The 80 µL of cell suspensions (ca. 1.25 × 10^5 cells per mL) were pipetted onto 96-well plastic microtitration plates.” left out

[4] = tested on: human lung adenocarcinoma cell line (A549); assay: MTT assay, in vitro anticancer activity, A549; settings: A549 cells, 24 hours incubation, read-out: inhibition concentrations IC50
Experimental: as §1, §2
The determination of in vitro anticancer activity of the studied compounds 1-6 and cisplatin against human lung adenocarcinoma cell line (A549) was performed by the MTT assay.

[5] = tested on: human cervix epitheloid carcinoma cell line (HeLa); assay: MTT assay, in vitro anticancer activity, HeLa; settings: HeLa cells, 24 hours incubation, read-out: inhibition concentrations IC50
Experimental: as §1, §2
The determination of in vitro anticancer activity of the studied compounds 1-6 and cisplatin against human cervix epitheloid carcinoma cell line (HeLa) was performed by the MTT assay.

[6] = tested on: human cisplatin-resistant ovarian carcinoma cell line (A2780R); assay: MTT assay, in vitro anticancer activity, A2780R; settings: A2780R cells, 24 hours incubation, read-out: inhibition concentrations IC50
Experimental: as §1, §2
The determination of in vitro anticancer activity of the studied compounds 1-6 and cisplatin against human cisplatin-resistant ovarian carcinoma cell line (A2780R) was performed by the MTT assay.

Structure (SMILES)	IC50 [1] [nM]	IC50 [2] [nM]	IC50 [3] [nM]	IC50 [4] [nM]	IC50 [5] [nM]	IC50 [6] [nM]
N.N.[Cl][Pt][Cl] [cisplatin, cis-diammine-dichlorido platinum(II) complex, reference compound]	3800 ± 1500	12000 ± 800	3400 ± 100	25800 ± 7100	10000 ± 2600	27000 ± 4600
O=[N+]([O-])[O-].O=c1c([O-])c(-c2ccccc2)[nH]c2ccccc12.[Cu+2].c1cnc2c(c1)ccc1cccnc12 [complex 1, (2-phenyl-4-oxo-1,4-dihydroquinolin-3-olato-κ^2O^3:O^4)(1,10-phenanthroline-κ^2N^1:N^10)copper(II) nitrate monohydrate]	2400 ± 600	650 ± 280	820 ± 150	2500 ± 400	2900 ± 300	830 ± 300
Cc1cc2cccnc2c2ncccc12.O=[N+]([O-])[O-].O=c1c([O-])c(-c2ccccc2)[nH]c2ccccc12.[Cu+2] [complex 2, (2-phenyl-4-oxo-1,4-dihydroquinolin-3-olato-κ^2O^3:O^4)(5-methyl-1,10-phenanthroline-κ^2N^1:N^10)copper(II) nitrate monohydrate]	2100 ± 600	380 ± 30	530 ± 220	2500 ± 600	2600 ± 400	780 ± 70
O=[N+]([O-])[O-].O=c1c([O-])c(-c2ccccc2)[nH]c2ccccc12.[Cu+2].c1ccc(-c2ccnc3c2ccc2c(-c4ccccc4)ccnc23)cc1 [complex 3, (2-phenyl-4-oxo-1,4-dihydroquinolin-3-olato-κ^2O^3:O^4)(4,7-diphenyl-1,10-phenanthroline-κ^2N^1:N^10)copper(II) nitrate monohydrate]	740 ± 210	660 ± 70	960 ± 30	1700 ± 300	1000 ± 200	730 ± 90
F[B-](F)(F)F.O=c1c([O-])c(-c2ccccc2)[nH]c2ccccc12.[Cu+2].c1cnc2c(c1)ccc1cccnc12 [complex 4, (2-phenyl-4-oxo-1,4-dihydroquinolin-3-olato-κ^2O^3:O^4) (1,10-phenanthroline-κ^2N^1:N^10)copper(II) tetrafluoroborate]	1900 ± 600	520 ± 100	640 ± 200	3900 ± 1200	2700 ± 600	1700 ± 600
Cc1cc2cccnc2c2ncccc12.F[B-](F)(F)F.O=c1c([O-])c(-c2ccccc2)[nH]c2ccccc12.[Cu+2] [complex 5, (2-phenyl-4-oxo-1,4-dihydroquinolin-3-olato-K^2O^3:O^4)(5-methyl-1,10-phenanthroline-κ^2N^1:N^10)copper(II) tetrafluoroborate monohydrate]	1500 ± 600	360 ± 50	530 ± 90	2500 ± 600	2400 ± 1000	560 ± 150
F[B-](F)(F)F.O=c1c([O-])c(-c2ccccc2)[nH]c2ccccc12.[Cu+2].c1ccc(-c2ccnc3c2ccc2c(-c4ccccc4)ccnc23)cc1 [complex 6, (2-phenyl-4-oxo-1,4-dihydroquinolin-3-olato-κ^2O^3:O^4) (4,7-diphenyl-1,10-phenanthroline-κ^2N^1:N^10) copper(II) tetrafluoroborate]	620 ± 80	570 ± 110	720 ± 60	1300 ± 400	1300 ± 400	700 ± 200
